Laboratory results reported in PubChem BioAssay (NCI).
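Growth conditions: 96-well plates. Treatment: test compound, 48 hours, 5 concentrations. Analysis: linear interpolation between bracketing concentrations; unreached endpoints set to highest concentration. TGI marks complete inhibition of growth.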

Columns and labels:
Assay in all cases: NCI-60 cell line screen, 48 h
IGROV1 ovarian = test system: IGROV1 ovarian
SK-MEL-5 melanoma = test system: SK-MEL-5 melanoma
NCI-H226 lung = test system: NCI-H226 lung
MDA-N = test system: MDA-N
KM12 colon = test system: KM12 colon
DU-145 prostate = test system: DU-145 prostate
HCC-2998 colon = test system: HCC-2998 colon
PC-3 prostate = test system: PC-3 prostate
LOX IMVI melanoma = test system: LOX IMVI melanoma
MCF7 breast = test system: MCF7 breast
NCI-H522 lung = test system: NCI-H522 lung
MDA-MB-435 = test system: MDA-MB-435
K-562 leukemia = test system: K-562 leukemia
OVCAR-4 ovarian = test system: OVCAR-4 ovarian
SF-539 CNS = test system: SF-539 CNS
MALME-3M melanoma = test system: MALME-3M melanoma
SK-OV-3 ovarian = test system: SK-OV-3 ovarian
NCI-H460 lung = test system: NCI-H460 lung
SF-295 CNS = test system: SF-295 CNS
HOP-62 NSCLC = test system: HOP-62 NSCLC
U251 CNS = test system: U251 CNS
M14 melanoma = test system: M14 melanoma
NCI/ADR-RES ovarian = test system: NCI/ADR-RES ovarian
RXF 393 renal = test system: RXF 393 renal
EKVX NSCLC = test system: EKVX NSCLC
SK-MEL-2 melanoma = test system: SK-MEL-2 melanoma
HCT-15 colon = test system: HCT-15 colon
A549 NSCLC = test system: A549 NSCLC
OVCAR-5 ovarian = test system: OVCAR-5 ovarian
CAKI-1 renal = test system: CAKI-1 renal
SK-MEL-28 melanoma = test system: SK-MEL-28 melanoma
UACC-257 melanoma = test system: UACC-257 melanoma
ACHN renal = test system: ACHN renal
T-47D breast = test system: T-47D breast
SR leukemia = test system: SR leukemia
A498 renal = test system: A498 renal
HCT-116 colon = test system: HCT-116 colon
OVCAR-8 ovarian = test system: OVCAR-8 ovarian
786-0 renal = test system: 786-0 renal
HT29 colon = test system: HT29 colon
HOP-92 NSCLC = test system: HOP-92 NSCLC
SNB-19 CNS = test system: SNB-19 CNS
SW-620 colon = test system: SW-620 colon
NCI-H23 lung = test system: NCI-H23 lung
HL-60(TB) leukemia = test system: HL-60(TB) leukemia
HS 578T breast = test system: HS 578T breast
OVCAR-3 ovarian = test system: OVCAR-3 ovarian
UACC-62 melanoma = test system: UACC-62 melanoma
RPMI-8226 leukemia = test system: RPMI-8226 leukemia
TK-10 renal = test system: TK-10 renal
COLO 205 colon = test system: COLO 205 colon
SN12C renal = test system: SN12C renal
SF-268 CNS = test system: SF-268 CNS

C#CC1(O)CCCCCCCCC2(CCCCCCCC1)OCCO2
TGI (IGROV1 ovarian): 30.3 µM
TGI (SK-MEL-5 melanoma): 33.4 µM
TGI (NCI-H226 lung): 34 µM
TGI (MDA-N): 35.9 µM
TGI (KM12 colon): 34.6 µM
TGI (DU-145 prostate): 31.1 µM
TGI (HCC-2998 colon): 29.5 µM
TGI (PC-3 prostate): 25.9 µM
TGI (LOX IMVI melanoma): 38.1 µM
TGI (MCF7 breast): 36.3 µM
TGI (NCI-H522 lung): 6.42 µM
TGI (MDA-MB-435): 33.5 µM
TGI (K-562 leukemia): 43.6 µM
TGI (OVCAR-4 ovarian): 19.5 µM
TGI (SF-539 CNS): 31.8 µM
TGI (MALME-3M melanoma): 34.3 µM
TGI (SK-OV-3 ovarian): 33.2 µM
TGI (NCI-H460 lung): 44.2 µM
TGI (SF-295 CNS): 34.7 µM
TGI (HOP-62 NSCLC): 44.5 µM
TGI (U251 CNS): 30.8 µM
TGI (M14 melanoma): 33.9 µM
TGI (NCI/ADR-RES ovarian): 34.7 µM
TGI (RXF 393 renal): 24.5 µM
TGI (EKVX NSCLC): 32.6 µM
TGI (SK-MEL-2 melanoma): 27.9 µM
TGI (HCT-15 colon): 39.1 µM
TGI (A549 NSCLC): 26.8 µM
TGI (OVCAR-5 ovarian): 37.8 µM
TGI (CAKI-1 renal): 24.7 µM
TGI (SK-MEL-28 melanoma): 35.1 µM
TGI (UACC-257 melanoma): 39.2 µM
TGI (ACHN renal): 27.3 µM
TGI (T-47D breast): 33.8 µM
TGI (SR leukemia): 34.3 µM
TGI (A498 renal): 27.8 µM
TGI (HCT-116 colon): 30.4 µM
TGI (OVCAR-8 ovarian): 34.4 µM
TGI (786-0 renal): 31.4 µM
TGI (HT29 colon): 35.4 µM
TGI (HOP-92 NSCLC): 33.3 µM
TGI (SNB-19 CNS): 33 µM
TGI (SW-620 colon): 34.7 µM
TGI (NCI-H23 lung): 33.9 µM
TGI (HL-60(TB) leukemia): 40.9 µM
TGI (HS 578T breast): 38.9 µM
TGI (OVCAR-3 ovarian): 29.3 µM
TGI (UACC-62 melanoma): 28.6 µM
TGI (RPMI-8226 leukemia): 22 µM
TGI (TK-10 renal): 37 µM
TGI (COLO 205 colon): 33.2 µM
TGI (SN12C renal): 31.5 µM
TGI (SF-268 CNS): 34.2 µM
